{
  "source": "patent US20250361230A1",
  "about": "“LATS Inhibitors and Uses Thereof” (The USA, as Represented by the Secretary, Dept. of Heath …, priority 2022, published 2025)",
  "note": "pIC50: −log10 of the molar value.",
  "data": [
    {"molecular_target": "T1, LATS1 Kinase-NanoLuc fusion in HEK-293 cells (Homo sapiens, UniProt O95835)", "T1 construct": "host or cells: HEK-293", "T1 sequence (O95835 1-1130)": "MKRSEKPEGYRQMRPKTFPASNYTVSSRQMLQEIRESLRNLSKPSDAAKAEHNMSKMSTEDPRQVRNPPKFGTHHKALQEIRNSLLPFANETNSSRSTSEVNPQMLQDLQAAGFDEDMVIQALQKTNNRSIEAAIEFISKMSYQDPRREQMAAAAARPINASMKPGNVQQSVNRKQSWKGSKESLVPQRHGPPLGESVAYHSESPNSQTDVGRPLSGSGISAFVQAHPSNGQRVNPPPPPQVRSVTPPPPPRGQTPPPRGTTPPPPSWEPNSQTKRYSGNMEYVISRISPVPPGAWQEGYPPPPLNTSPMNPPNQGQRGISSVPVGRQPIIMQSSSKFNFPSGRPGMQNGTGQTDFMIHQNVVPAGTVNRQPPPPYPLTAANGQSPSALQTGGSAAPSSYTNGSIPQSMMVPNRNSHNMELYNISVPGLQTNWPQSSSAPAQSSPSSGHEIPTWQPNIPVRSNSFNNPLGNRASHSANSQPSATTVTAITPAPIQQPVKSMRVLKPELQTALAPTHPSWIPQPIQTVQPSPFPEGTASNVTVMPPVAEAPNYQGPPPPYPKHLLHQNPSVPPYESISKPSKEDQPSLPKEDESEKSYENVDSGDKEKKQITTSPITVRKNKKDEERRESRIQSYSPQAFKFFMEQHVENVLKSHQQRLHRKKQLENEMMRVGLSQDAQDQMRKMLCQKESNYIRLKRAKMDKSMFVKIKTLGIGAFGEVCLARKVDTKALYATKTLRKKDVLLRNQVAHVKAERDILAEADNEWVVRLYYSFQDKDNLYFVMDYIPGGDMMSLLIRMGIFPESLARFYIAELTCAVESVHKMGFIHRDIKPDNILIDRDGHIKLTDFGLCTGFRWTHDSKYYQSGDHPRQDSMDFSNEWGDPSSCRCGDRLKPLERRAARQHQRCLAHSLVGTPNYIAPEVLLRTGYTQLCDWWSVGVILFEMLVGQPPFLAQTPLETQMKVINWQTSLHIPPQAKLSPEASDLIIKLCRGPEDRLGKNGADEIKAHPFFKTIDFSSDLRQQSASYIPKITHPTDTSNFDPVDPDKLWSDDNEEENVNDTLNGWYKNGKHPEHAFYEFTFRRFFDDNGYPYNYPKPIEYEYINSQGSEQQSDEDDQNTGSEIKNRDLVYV", "experiment": "NanoBRET target engagement assay in transfected HEK-293 cells, LATS1", "assay_type": "cell-based", "conditions": "Table 28, NanoBRET, HEK-293 cells; read-out: LATS1 (Cellular) IC50", "in_short": "(§1)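 HEK-293 cells transiently transfected with kinase-NanoLuc fusion plasmid for 22-24 h, then incubated with compound and NanoBRET tracer for 1 hour at 37° C. After substrate plus extracellular NanoLuc inhibitor addition, 460 and 600 nm emissions read; no-tracer-corrected BRET ratio used to derive IC50 values.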", "values": [
      {"smiles": "NCc1ccc(-c2ccnc3[nH]ccc23)cc1", "note": "[Compound 287, (4-(1H-pyrrolo[2,3-b]pyridin-4-yl)phenyl) methanamine]", "pIC50": 4.64},
      {"smiles": "C[C@@H]1CN(C2CCC2)C[C@H](C)[C@@]1(O)c1c(F)cc(-c2ccnc3[nH]cc(F)c23)cc1F", "note": "[Compound 46, (3R,4s,5S)-1-cyclobutyl-4-(2,6-difluoro-4-(3-fluoro-1H-pyrrolo[2,3-b]pyridin-4-yl)phenyl)-3,5-dimethylpiperidin-4-ol]", "pIC50": 6.34},
      {"smiles": "NCc1ccc(-c2ccnc3[nH]ccc23)cc1C(F)(F)F", "note": "[Compound 284, (4-(1H-pyrrolo[2,3-b]pyridin-4-yl)-2-(trifluoromethyl)phenyl) methanamine]", "pIC50": 4.46},
      {"smiles": "NCc1ccc(-c2ccnc3[nH]cc(Cl)c23)cc1", "note": "[Compound 276, (4-(3-chloro-1H-pyrrolo[2,3-b]pyridin-4-yl)phenyl) methanamine]", "pIC50": 5.55},
      {"smiles": "Cc1cc(-c2ccnc3[nH]cc(F)c23)ncc1[C@@]1(O)[C@H](C)CN(C2CCS(=O)(=O)CC2)C[C@@H]1C", "note": "[Compound 51, 4-((3R,4s,5S)-4-(6-(3-fluoro-1H-pyrrolo[2,3-b]pyridin-4-yl)-4-methylpyridin-3-yl)-4-hydroxy-3,5-dimethylpiperidin-1-yl)tetrahydro-2H-thiopyran 1,1-dioxide]", "pIC50": "< 4.52"},
      {"smiles": "Cc1cc(-c2ccnc3[nH]cc(F)c23)ccc1CN", "note": "[Compound 211, (4-(3-fluoro-1H-pyrrolo[2,3-b]pyridin-4-yl)-2-methylphenyl) methanamine]", "pIC50": 5.20},
      {"smiles": "CC1(c2ccc(-c3ccnc4[nH]ccc34)cc2)CCNCC1", "note": "[Compound 201, 4-(4-(4-methylpiperidin-4-yl)phenyl)-1H-pyrrolo[2,3-b]pyridine]", "pIC50": "< 4.30"},
      {"smiles": "Fc1c[nH]c2nccc(-c3ccc(C4CCNCC4)c(Cl)c3)c12", "note": "[Compound 172, 4-(3-chloro-4-(piperidin-4-yl)phenyl)-3-fluoro-1H-pyrrolo[2,3-b]pyridine]", "pIC50": "< 4.30"},
      {"smiles": "OC1(c2ccc(-c3ccnc4[nH]cc(F)c34)cc2)CCNCC1", "note": "[Compound 110, 4-(4-(3-fluoro-1H-pyrrolo[2,3-b]pyridin-4-yl)phenyl)piperidin-4-ol]", "pIC50": 4.75},
      {"smiles": "C[C@@H]1CN(Cc2ccccn2)C[C@H](C)[C@@]1(O)c1c(F)cc(-c2ccnc3[nH]cc(F)c23)cc1F", "note": "[Compound 17, (3S,4s,5R)-4-(2,6-difluoro-4-(3-fluoro-1H-pyrrolo[2,3-b]pyridin-4-yl)phenyl)-3,5-dimethyl-1-(pyridin-2-ylmethyl)piperidin-4-ol]", "pIC50": 6.39},
      {"smiles": "NCc1ccc(-c2ccnc3[nH]cc(-c4ccccc4)c23)cc1", "note": "[Compound 253, (4-(3-phenyl-1H-pyrrolo[2,3-b]pyridin-4-yl)phenyl) methanamine]", "pIC50": 5.53},
      {"smiles": "OC1(c2ccc(-c3ccnc4[nH]cc(F)c34)cc2)CC2(CNC2)C1", "note": "[Compound 319, 6-(4-(3-fluoro-1H-pyrrolo[2,3-b]pyridin-4-yl)phenyl)-2-azaspiro[3.3]heptan-6-ol]", "pIC50": 4.56},
      {"smiles": "Cc1cc(-c2ccnc3[nH]cc(F)c23)cc(F)c1C1(O)[C@H](C)CN(C2COC2)C[C@@H]1C", "note": "(stereo partly drawn) [Compound 30, (3S,5R)-4-(2-fluoro-4-(3-fluoro-1H-pyrrolo[2,3-b]pyridin-4-yl)-6-methylphenyl)-3,5-dimethyl-1-(oxetan-3-yl)piperidin-4-ol]", "pIC50": 7.24},
      {"smiles": "C[C@@H]1CNC[C@H](C)[C@@]1(O)c1ccc(-c2ccnc3[nH]cc(F)c23)nc1", "note": "[Compound 8, (3S,4s,5R)-4-(6-(3-fluoro-1H-pyrrolo[2,3-b]pyridin-4-yl)pyridin-3-yl)-3,5-dimethylpiperidin-4-ol]", "pIC50": 7.22},
      {"smiles": "OC1(c2ccc(-c3ccnc4[nH]ccc34)cc2)CCNCC1", "note": "[Compound 111, 4-(4-(1H-pyrrolo[2,3-b]pyridin-4-yl)phenyl)piperidin-4-ol]", "pIC50": "< 4.30"},
      {"smiles": "NCc1ccc(-c2ccnc3[nH]cc(-c4ccccc4)c23)cc1-c1ccccc1", "note": "[Compound 219, (5-(3-phenyl-1H-pyrrolo[2,3-b]pyridin-4-yl)-[1,1′-biphenyl]-2-yl)methanamine]", "pIC50": 6.19},
      {"smiles": "C[C@@H]1CN(C2CCNCC2)C[C@H](C)[C@@]1(O)c1c(F)cc(-c2ccnc3[nH]cc(F)c23)cc1F", "note": "[Compound 90, (3R,4s,5S)-4-(2,6-difluoro-4-(3-fluoro-1H-pyrrolo[2,3-b]pyridin-4-yl)phenyl)-3,5-dimethyl-[1,4′-bipiperidin]-4-ol]", "pIC50": 6.47},
      {"smiles": "Cc1cc(-c2ccnc3[nH]cc(F)c23)ccc1[C@@]1(O)[C@H](C)CN(C(=O)CN)C[C@@H]1C", "note": "[Compound 60, 2-amino-1-((3R,4s,5S)-4-(4-(3-fluoro-1H-pyrrolo[2,3-b]pyridin-4-yl)-2-methylphenyl)-4-hydroxy-3,5-dimethylpiperidin-1-yl)ethan-1-one]", "pIC50": 7.67},
      {"smiles": "C[C@@H]1CNC[C@H](C)[C@@]1(O)c1ccc(-c2ccnc3[nH]cc(F)c23)cc1F", "note": "[Compound 7, (3S,4s,5R)-4-(2-fluoro-4-(3-fluoro-1H-pyrrolo[2,3-b]pyridin-4-yl)phenyl)-3,5-dimethyl piperidin-4-ol]", "pIC50": 6.61}
    ]},
    {"molecular_target": "T1, LATS1 Kinase-NanoLuc fusion in HEK-293 cells", "experiment": "NanoBRET target engagement assay in transfected HEK-293 cells, LATS1", "assay_type": "cell-based", "conditions": "Table 32, NanoBRET, HEK-293 cells; read-out: LATS1 (Cellular) IC50", "in_short": "as §1", "values": [
      {"smiles": "NCC(O)(c1ccc(Cl)cc1)c1ccc(-c2ccnc3[nH]cc(Br)c23)cc1", "note": "(stereo not drawn) [Compound 1005, 2-amino-1-(4-(3-bromo-1H-pyrrolo[2,3-b]pyridin-4-yl)phenyl)-1-(4-chlorophenyl)ethan-1-ol]", "pIC50": 8.10},
      {"smiles": "NCC(O)(c1ccc(Cl)cc1)c1ccc(-c2ccnc3[nH]cc(Br)c23)nc1", "note": "(stereo not drawn) [Compound 1011, 2-amino-1-(6-(3-bromo-1H-pyrrolo[2,3-b]pyridin-4-yl)pyridin-3-yl)-1-(4-chlorophenyl)ethan-1-ol]", "pIC50": 7.62},
      {"smiles": "NCC(O)(c1ccc(Cl)cc1)c1ccc(-c2ccnc3[nH]ccc23)cc1", "note": "(stereo not drawn) [Compound 1001, 1-(4-(1H-pyrrolo[2,3-b]pyridin-4-yl)phenyl)-2-amino-1-(4-chlorophenyl)ethan-1-ol]", "pIC50": 6.91}
    ]},
    {"molecular_target": "T1, LATS1 Kinase-NanoLuc fusion in HEK-293 cells", "experiment": "NanoBRET target engagement assay in transfected HEK-293 cells, LATS1", "assay_type": "cell-based", "conditions": "cellular", "in_short": "as §1", "values": [
      {"smiles": "Cc1cc(-c2ccnc3[nH]cc(C#N)c23)cc(F)c1[C@@]1(O)[C@H](C)CN(C2CCS(=O)(=O)CC2)C[C@@H]1C", "note": "[Compound 2002, 4-(4-((3S,4s,5R)-1-(1,1-dioxidotetrahydro-2H-thiopyran-4-yl)-4-hydroxy-3,5-dimethylpiperidin-4-yl)-3-fluoro-5-methylphenyl)-1H-pyrrolo[2,3-b]pyridine-3-carbonitrile]", "pIC50": 7.52},
      {"smiles": "Cc1cc(-c2ccnc3[nH]cc(C#N)c23)cc(F)c1[C@@]1(O)[C@H](C)CN(C(=O)[C@@H](C)N)C[C@@H]1C", "note": "[Compound 2015, 4-(4-((3S,4S,5R)-1-(D-alanyl)-4-hydroxy-3,5-dimethylpiperidin-4-yl)-3-fluoro-5-methylphenyl)-1H-pyrrolo[2,3-b]pyridine-3-carbonitrile]", "pIC50": "> 8.60"},
      {"smiles": "Cc1cc(-c2ccnc3[nH]cc(C#N)c23)cc(F)c1[C@@]1(O)[C@H](C)CN(C(=O)CNCC(F)(F)F)C[C@@H]1C", "note": "[Compound 2014, 4-(3-fluoro-4-((3S,4s,5R)-4-hydroxy-3,5-dimethyl-1-((2,2,2-trifluoroethyl)glycyl)piperidin-4-yl)-5-methylphenyl)-1H-pyrrolo[2,3-b]pyridine-3-carbonitrile]", "pIC50": 6.86},
      {"smiles": "Cc1cc(-c2ccnc3[nH]cc(C#N)c23)cc(F)c1[C@@]1(O)[C@H](C)CN(C(=O)[C@](C)(N)CO)C[C@@H]1C", "note": "[Compound 2008, 4-(4-((3S,4s,5R)-1-(2-amino-3-hydroxy-2-methylpropanoyl)-4-hydroxy-3,5-dimethylpiperidin-4-yl)-3-fluoro-5-methylphenyl)-1H-pyrrolo[2,3-b]pyridine-3-carbonitrile]", "pIC50": "> 8.60"},
      {"smiles": "Cc1cc(-c2ccnc3[nH]cc(C#N)c23)cc(F)c1[C@@]1(O)[C@H](C)CN(C(=O)[C@H](N)CO)C[C@@H]1C", "note": "[Compound 2007, 4-(4-((3S,4S,5R)-1-(D-seryl)-4-hydroxy-3,5-dimethylpiperidin-4-yl)-3-fluoro-5-methylphenyl)-1H-pyrrolo[2,3-b]pyridine-3-carbonitrile]", "pIC50": "> 8.60"}
    ]}
  ]
}
